Earlier results as cited in patent US8956669B2, “Anticancer and antimicrobial compounds from antarctic extremophilic microorgansims” (priority 2009, dated 2015).
Marks after values point to notes of the source that are not given here.

Tests used:
Mycobacterium smegmatis = conditions: literature values, Table 2
[1] = system: Mycobacterium tuberculosis; conditions: literature values, Table 2

Row | Compound | MIC against Mycobacterium smegmatis (Mycobacterium smegmatis) | MIC against Mycobacterium tuberculosis [1]
1 | O=c1cc(-c2ccccc2O)oc2cc(O)cc(O)c12 [5,7,2′-trihydroxyflavone] | 31^h μg/ml | 10^h μg/ml
2 | C=CCS[S+]([O-])CC=C (stereo not drawn) [Allicin] | – | 25^k μg/ml
3 | O=c1cc(-c2ccccc2)oc2cc(O)c(O)c(O)c12 [Baicalein] | 64^a μg/ml | –
4 | O=C(O)[C@H]1O[C@@H](Oc2cc3oc(-c4ccccc4)cc(=O)c3c(O)c2O)[C@H](O)[C@@H](O)[C@@H]1O [Baicalin] | 256^a μg/ml | –
5 | COc1ccc(-c2coc3cc(O)cc(O)c3c2=O)cc1 [Biochanin A] | 256^a μg/ml | –
6 | CN(C)CCCN1c2ccccc2Sc2ccc(Cl)cc21 [Chlorpromazine] | 64^a μg/ml | –
7 | O=C(O)c1cn(C2CC2)c2cc(N3CCNCC3)c(F)cc2c1=O [Ciprofloxacin] | 1^c μg/ml | 0.5^g μg/ml
8 | O=c1c(-c2ccc(O)cc2)coc2cc(O)ccc12 [Daidzein] | 256^a μg/ml | –
9 | Cc1cc(O)c2c(c1)C(=O)C(c1c(C)cc3c(c1O)C(=O)C=CC3=O)=CC2=O [Diospyrin] | 100^j μg/ml | 100^j μg/ml
10 | O=c1c(-c2ccc(O)cc2)coc2cc(O)cc(O)c12 [Genistein] | 256^a μg/ml | –
11 | NNC(=O)c1ccncc1 [Isoniazid] | 5^b μg/ml | 0.1^f μg/ml
12 | O=c1cc(-c2ccc(O)c(O)c2)oc2cc(O)cc(O)c12 [Luteolin] | 32^a μg/ml | 200^d μg/ml
13 | O=c1c(O)c(-c2cc(O)c(O)c(O)c2)oc2cc(O)cc(O)c12 [Myricetin] | 32^a μg/ml | –
14 | COC(=O)[C@H]1[C@H]2C[C@@H]3c4[nH]c5cc(OC)ccc5c4CCN3C[C@H]2C[C@@H](OC(=O)c2cc(OC)c(OC)c(OC)c2)[C@@H]1OC [Reserpine] | 128^a μg/ml | –
15 | Oc1ccc(C=Cc2cc(O)cc(O)c2)cc1 [Resveratrol] | 64^a μg/ml | –
16 | CO[C@H]1/C=C/O[C@@]2(C)Oc3c(C)c(O)c4c(O)c(c(/C=N/N5CCN(C)CC5)c(O)c4c3C2=O)NC(=O)/C(C)=C\C=C\[C@H](C)[C@H](O)[C@@H](C)[C@@H](O)[C@@H](C)[C@H](OC(C)=O)[C@@H]1C [Rifampcin] | 1^b μg/ml | 0.1^f μg/ml
17 | COc1ccc(CCN(C)CCCC(C#N)(c2ccc(OC)c(OC)c2)C(C)C)cc1OC (stereo not drawn) [Verapamil] | 256^a μg/ml | –
18 | Cc1cc(O)c2c(c1)C(=O)c1c(oc3c1c(=O)oc1cccc(C)c13)C2=O [crassiflorone] | 1.22^l μg/ml | 39.06^l μg/ml
19 | CC1=CC(=O)c2c(O)cccc2C1=O [plumbagin] | 1.22^l μg/ml | 39.06^l μg/ml
20 | Diospyrone | 1.22^l μg/ml | 39.06^l μg/ml
21 | Laburnetin | – | 4.88^e μg/ml
